Test system: HCV peptide-specific T cells (MHC class I-restricted CD8+ / MHC class II-restricted CD4+)
Experiment: IFN-γ ELIspot assay of spleen cells after vaccination of mice
Assay type: in vivo, HLA-A*0201 transgenic mice (HHD.2)
Description: Vaccine: clinical batch PD03127 (lot K) Injection volume of 100 μl per mouse contains:
As adjuvant: Poly-L-Arginine with an average degree of polymerisation of 40 to 50 arginine residues (determined by multiple angle laser light scattering (MALLS)); lot 113K7277; Sigma Aldrich Inc.; 400 μg • Additional adjuvant: Aldara™ containing 5% Imiquimod, an immunostimulatory agent acting via TLR7; 3M Health Care Ltd.; dose: approx 20 mg/mouse • Formulation buffer: 5 mM phosphate/270 mM sorbitol Experimental set-up 10 mice per group • 1. subcutaneous injection into the flank • 2. intradermal injection into the back • 3. intradermal injection into the back followed by immediate application of Aldara™ cream at injection area
On days 0, 14 and 28 mice were injected with a total amount of 100 μl/vaccine/mouse containing the above listed compounds at different sites as indicated. Spleens were harvested for each experimental group on day 35 and enriched for CD4^+ T cells by magnetic separation (MACS). CD4^+ T cell-depleted spleen cells were used to determine the CD8^+ T cell response. MHC class II restricted (CD4^+ T cells) as well as MHC class I restricted T cell responses (CD8^+ T cells) against each single HCV-derived peptide were determined using an IFN-7 ELIspot assay. In general, restimulation with an irrelevant peptide induced no IFN-7 production.
Vaccine: Injection volume of 100 μl per mouse contains: As antigens: Ipep 83 200 μg, Ipep 84 200 μg, Ipep 87 200 μg, Ipep 89 200 μg, Ipep 1426 200 μg As adjuvant: Poly-L-Arginine with an average degree of polymerization of 40 to 50 arginine residues (determined by MALLS); lot 113K7277; Sigma Aldrich Inc.; 400 μg • Additional adjuvant: Aldara™ containing 5% Imiquimod, an immunostimulatory agent acting via TLR7; 3M Health Care Ltd.; dose: approx 20 mg/mouse • Formulation buffer: 5 mM phosphate/270 mM sorbitol Experimental set-up 30 mice per group (10 per time point of analysis) • 1. intradermal injection into the back • 2. intradermal injection into the back followed by immediate application of Aldara™ cream at injection area […]

[1] = Example 1: subcutaneous injection into the flank, days 0, 14 and 28, spleens day 35

GYKVLVLNPSVAAT [Ipep 84]
MHC class I-restricted CD8+ T cell response (IFN-γ ELIspot) [1]: could be detected
MHC class II-restricted CD4+ T cell response (IFN-γ ELIspot) [1]: could be detected
IFN-γ production by MHC class I-restricted CD8+ T cells (Example 2: two intradermal injections, day 21): induced in comparable strength

Source: patent US20090186047A1, “HCV Vaccinations” (INTERCELL AG, priority 2006, published 2009)
